Source: ChEMBL document CHEMBL1201862, “PubChem BioAssay data set” (2004)
Each block holds one compound with its values, some of them ahead of it. The source made the active and inactive calls.

Experiments:
[1] = target: Ubiquitin carboxyl-terminal hydrolase BAP1 (Homo sapiens, UniProt Q92560); test: inhibition of BAP1 ubiquitin hydrolase activity – biochemical, dose response (AID 714); format: functional
[2] = target: NAD-dependent protein deacylase sirtuin-5, mitochondrial (Homo sapiens, UniProt Q9NXA8); test: sirtuin-5 deacylation blockers, concentration series – biochemical, fluorescence imaging, cherry-pick, set 5, dose response (AID 720591);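 also: desuccinylation of succinyl peptide AMC substrate read as fluorescence after trypsin release; potency of inhibitors that lower fluorescence and may act on trypsin instead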
[3] = target: Kallikrein-7 (Homo sapiens, UniProt P49862); test: Fluorescence Intensity-based biochemical primary high throughput dose response assay to identify activators of kallikrein-7 (K7) zymogen.
[4] = target: T1, Estrogen receptor beta (Homo sapiens, UniProt Q92731);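 also: recombinant ER-beta bound to coactivator SRC1 peptide in presence of estradiol agonist; inhibitors block coactivator peptide binding and lower the FRET signal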
[5] = IC50 of Artemis nuclease activity blockers – biochemical, fluorescence intensity, dose response (AID 720701); format: functional;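 also: Artemis endonuclease enzyme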
[6] = target: T2, Low molecular weight phosphotyrosine protein phosphatase (Homo sapiens, UniProt P24666); format: functional; settings: read-out: IC50_Mean;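 also: Dose-response confirmation assay measuring inhibition of LMPTP enzyme activity by fluorescence intensity read-out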
T2 sequence (P24666 whole entry): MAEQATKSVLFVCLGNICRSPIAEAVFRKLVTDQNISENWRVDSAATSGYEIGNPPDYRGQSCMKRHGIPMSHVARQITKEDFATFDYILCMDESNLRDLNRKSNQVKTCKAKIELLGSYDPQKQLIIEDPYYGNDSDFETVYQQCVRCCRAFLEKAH

[7] = target: T3, Bcl-2-like protein 10 (Homo sapiens, UniProt Q9HD36); test: Bcl-B/TR3 peptide binding disruption – biochemical, fluorescence polarization, FITC-TR3 peptide, selectivity assay for Bfl-1 inhibitor project, primary screen (AID 748);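 also: fluorescence polarization from a fluorescein-labelled TR3 peptide binding purified Bcl-B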
T3 sequence (Q9HD36 whole entry): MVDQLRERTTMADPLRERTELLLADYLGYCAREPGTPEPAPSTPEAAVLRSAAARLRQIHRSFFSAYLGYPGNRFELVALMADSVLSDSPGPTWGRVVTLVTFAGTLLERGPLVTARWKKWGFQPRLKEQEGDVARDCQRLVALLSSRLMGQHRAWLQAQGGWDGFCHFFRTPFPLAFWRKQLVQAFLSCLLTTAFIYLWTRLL

[8] = target: T4, Zinc finger protein mex-5 (Caenorhabditis elegans, UniProt Q9XUB2); test: potency of MEX-5 RNA-binding blockers – biochemical, C. elegans, fluorescence polarization, dose response (AID 1960)
T4 sequence (Q9XUB2 whole entry): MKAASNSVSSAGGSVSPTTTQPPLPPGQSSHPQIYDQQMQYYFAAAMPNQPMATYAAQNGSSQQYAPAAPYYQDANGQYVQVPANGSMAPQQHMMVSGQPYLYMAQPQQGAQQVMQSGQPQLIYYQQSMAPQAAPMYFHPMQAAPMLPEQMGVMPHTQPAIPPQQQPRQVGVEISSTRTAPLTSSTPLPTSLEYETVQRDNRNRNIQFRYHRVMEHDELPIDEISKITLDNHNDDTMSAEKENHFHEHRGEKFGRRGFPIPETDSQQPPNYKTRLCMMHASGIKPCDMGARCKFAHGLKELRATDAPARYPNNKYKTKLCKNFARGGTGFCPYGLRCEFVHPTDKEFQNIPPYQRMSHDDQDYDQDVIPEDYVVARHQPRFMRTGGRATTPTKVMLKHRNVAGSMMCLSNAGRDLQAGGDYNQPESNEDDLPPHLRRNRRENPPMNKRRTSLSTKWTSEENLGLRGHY

[9] = target: T5, Polyadenylate-binding protein 1 (Homo sapiens, UniProt P11940); test: MLLE domain peptide-binding blockers, IC50 – biochemical, fluorescence polarization, FITC-PAM2 peptide, dose response (AID 602259); format: functional; settings: read-out: IC50_Mean
[10] = target: Glutathione-S-transferase (Schistosoma japonicum, UniProt Q26513); test: GST-antibody interaction or FRET quenching – biochemical, TR-FRET, artefact control for Vif-APOBEC3G degradation inhibitor project, dose response (AID 1117362); format: functional
[11] = target: Large T antigen (Simian virus 40, UniProt P03070); format: functional, Betapolyomavirus macacae;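 also: Confirmatory-stage PubChem screen for compounds that inhibit SV40 T antigen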
[12] = target: T5, Polyadenylate-binding protein 1; test: MLLE binding blockers, Cy5 peptide tracer – biochemical, fluorescence polarization, Cy5-PAM2 peptide, secondary, miRNA deadenylation inhibitor project, dose response (AID 602260); format: functional; settings: read-out: IC50_Mean
[13] = target: T6, RNA-binding protein pos-1 (Caenorhabditis elegans, UniProt G5EF15); test: disruptors of C. elegans POS-1 RNA interaction – biochemical, fluorescence polarization, dose response (AID 1964);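 also: purified POS-1 fused to maltose binding protein made in E. coli; potency of compounds blocking POS-1 binding to fluorescent RNA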
T6 sequence (G5EF15 whole entry): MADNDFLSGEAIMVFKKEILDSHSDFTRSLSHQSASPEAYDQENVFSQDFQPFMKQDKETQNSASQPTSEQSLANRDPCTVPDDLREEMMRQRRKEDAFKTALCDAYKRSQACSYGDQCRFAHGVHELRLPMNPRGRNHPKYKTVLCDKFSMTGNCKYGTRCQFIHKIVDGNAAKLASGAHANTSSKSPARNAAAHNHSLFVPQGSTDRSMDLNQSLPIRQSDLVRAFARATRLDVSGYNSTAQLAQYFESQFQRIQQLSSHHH

[14] = target: Genome polyprotein (dengue virus type 2, UniProt P29990); test: flavivirus cap methylation enzyme inhibition – biochemical, confirmation dose response, primary screen (AID 588689); format: functional
[15] = target: T1, Estrogen receptor beta; test: blockers of SRC-3 recruitment to ERβ – biochemical, ELISA, streptavidin-HRP readout, orthogonal assay, confirmation (AID 1060)
[16] = system: Streptococcus; test: GAS UMAA2166 growth inhibition – luminescence, BacTiterGlo, counter-screen for streptokinase expression inhibitor project, dose response (AID 1915); format: functional, organism-based;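 also: potency for reduction of bacterial viability or growth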
[17] = viability loss in Vero cells – cytotoxicity control for Vif-APOBEC3G degradation inhibitor project, dose response (AID 1117358); format: functional; settings: Vero
[18] = system: Streptococcus sp. 'group A'; test: Streptococcus pyogenes SK(-)GAS viability under kanamycin – luminescence, BacTiterGlo, confirmation, counter-screen for streptokinase expression inhibitor project, dose response (AID 1900); format: functional, organism-based
[19] = Trypanosoma cruzi growth suppression in host cells – NIH3T3 host cells, beta-gal luminescence, confirmation (AID 2044); format: functional, cell-based;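 also: intracellular parasites grown in NIH/3T3 mouse fibroblasts as host cells; luminescent beta-galactosidase reporter signal from transgenic T. cruzi replicating inside host cells; inhibitors lower the luminescence signal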
[20] = NIH3T3 cell viability loss – ATP luminescence, mouse fibroblasts, counter-screen, dose response (AID 2010); format: functional, cell-based;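 also: cells exposed to compound for about 90 hours before reading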
[21] = target: E3 ubiquitin-protein ligase Mdm2 (Homo sapiens, UniProt Q00987); test: MDM2-luc reporter signal enhancers, multi-concentration potency testing, MDM2 ubiquitin-protein ligase inhibitor program, whole-cell format, luminescence detection, 384-well microplate (AID 1394); format: functional;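 also: MDM2 E3 inhibitors raise luminescence so EC50 is for signal enhancement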
Chain of E3 ubiquitin-protein ligase Mdm2 (Q00987 whole entry): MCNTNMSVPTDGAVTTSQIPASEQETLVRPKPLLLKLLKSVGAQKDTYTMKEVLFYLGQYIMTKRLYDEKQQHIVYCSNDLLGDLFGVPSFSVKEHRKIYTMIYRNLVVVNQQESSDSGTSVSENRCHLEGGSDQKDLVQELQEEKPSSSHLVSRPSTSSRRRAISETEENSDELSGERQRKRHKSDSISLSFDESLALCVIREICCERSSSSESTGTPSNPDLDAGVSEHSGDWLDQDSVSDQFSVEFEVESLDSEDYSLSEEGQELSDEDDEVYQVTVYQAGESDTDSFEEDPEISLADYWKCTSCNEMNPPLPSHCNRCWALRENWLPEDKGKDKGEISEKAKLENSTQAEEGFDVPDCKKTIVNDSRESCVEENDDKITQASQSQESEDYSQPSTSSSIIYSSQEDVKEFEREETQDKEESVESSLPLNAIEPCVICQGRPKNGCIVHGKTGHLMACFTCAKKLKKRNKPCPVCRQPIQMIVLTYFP

T1 sequence (Q92731 whole entry): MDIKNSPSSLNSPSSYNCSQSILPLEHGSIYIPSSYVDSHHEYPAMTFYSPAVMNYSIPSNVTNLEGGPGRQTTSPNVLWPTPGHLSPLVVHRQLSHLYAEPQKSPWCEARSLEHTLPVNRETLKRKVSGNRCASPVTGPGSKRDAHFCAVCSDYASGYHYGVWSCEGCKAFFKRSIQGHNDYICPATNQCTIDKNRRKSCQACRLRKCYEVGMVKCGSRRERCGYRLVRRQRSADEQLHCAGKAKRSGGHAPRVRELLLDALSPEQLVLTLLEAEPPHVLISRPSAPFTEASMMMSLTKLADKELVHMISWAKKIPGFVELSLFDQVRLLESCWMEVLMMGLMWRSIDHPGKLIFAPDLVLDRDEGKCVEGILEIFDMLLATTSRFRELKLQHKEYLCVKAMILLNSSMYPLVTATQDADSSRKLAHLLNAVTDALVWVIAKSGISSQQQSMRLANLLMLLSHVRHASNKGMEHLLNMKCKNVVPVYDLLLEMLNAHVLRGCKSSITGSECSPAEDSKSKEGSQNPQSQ
T5 sequence (P11940 whole entry, the tested form may be a part): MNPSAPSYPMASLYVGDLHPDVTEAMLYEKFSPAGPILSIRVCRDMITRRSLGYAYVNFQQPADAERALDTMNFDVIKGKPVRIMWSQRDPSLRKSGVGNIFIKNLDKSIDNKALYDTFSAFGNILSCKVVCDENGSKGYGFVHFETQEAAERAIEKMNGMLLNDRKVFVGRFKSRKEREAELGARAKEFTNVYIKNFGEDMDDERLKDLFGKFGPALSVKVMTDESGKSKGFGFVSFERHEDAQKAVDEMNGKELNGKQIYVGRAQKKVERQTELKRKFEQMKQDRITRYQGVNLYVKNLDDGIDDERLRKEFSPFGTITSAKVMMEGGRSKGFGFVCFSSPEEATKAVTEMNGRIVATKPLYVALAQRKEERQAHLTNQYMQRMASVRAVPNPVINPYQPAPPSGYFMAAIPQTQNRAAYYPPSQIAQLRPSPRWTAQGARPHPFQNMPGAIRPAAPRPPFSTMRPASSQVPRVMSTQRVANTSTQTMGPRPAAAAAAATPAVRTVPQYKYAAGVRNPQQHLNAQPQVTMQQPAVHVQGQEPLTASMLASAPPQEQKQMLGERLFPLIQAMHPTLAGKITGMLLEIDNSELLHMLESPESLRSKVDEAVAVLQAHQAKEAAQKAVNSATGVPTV
Chain of Ubiquitin carboxyl-terminal hydrolase BAP1 (Q92560 whole entry): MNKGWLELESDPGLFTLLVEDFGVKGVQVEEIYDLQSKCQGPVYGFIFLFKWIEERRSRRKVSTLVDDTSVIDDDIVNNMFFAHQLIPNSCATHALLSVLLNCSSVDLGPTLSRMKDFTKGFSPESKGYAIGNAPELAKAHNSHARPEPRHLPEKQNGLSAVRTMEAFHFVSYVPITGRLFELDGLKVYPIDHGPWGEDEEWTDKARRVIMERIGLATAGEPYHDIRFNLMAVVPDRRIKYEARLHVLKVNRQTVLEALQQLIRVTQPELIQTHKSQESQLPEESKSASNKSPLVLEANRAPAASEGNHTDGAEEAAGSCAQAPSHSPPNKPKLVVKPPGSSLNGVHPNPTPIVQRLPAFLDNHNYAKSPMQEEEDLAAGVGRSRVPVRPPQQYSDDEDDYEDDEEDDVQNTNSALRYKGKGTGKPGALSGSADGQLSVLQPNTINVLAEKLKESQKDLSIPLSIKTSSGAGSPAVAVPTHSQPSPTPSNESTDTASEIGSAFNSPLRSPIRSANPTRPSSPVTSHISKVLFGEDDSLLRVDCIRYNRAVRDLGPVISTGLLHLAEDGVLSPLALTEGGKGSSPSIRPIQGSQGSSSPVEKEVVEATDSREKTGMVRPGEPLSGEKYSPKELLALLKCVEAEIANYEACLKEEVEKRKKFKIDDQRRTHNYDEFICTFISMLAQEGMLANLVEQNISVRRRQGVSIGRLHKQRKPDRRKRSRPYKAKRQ
Chain of Kallikrein-7 (P49862 whole entry): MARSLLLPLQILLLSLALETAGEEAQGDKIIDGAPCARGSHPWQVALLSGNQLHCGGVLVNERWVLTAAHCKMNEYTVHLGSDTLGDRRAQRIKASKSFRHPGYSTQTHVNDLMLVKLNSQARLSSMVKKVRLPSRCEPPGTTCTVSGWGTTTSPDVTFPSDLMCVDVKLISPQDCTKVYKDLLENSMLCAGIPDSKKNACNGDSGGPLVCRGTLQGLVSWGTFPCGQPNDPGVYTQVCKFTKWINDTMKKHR
Chain of NAD-dependent protein deacylase sirtuin-5, mitochondrial (Q9NXA8 whole entry): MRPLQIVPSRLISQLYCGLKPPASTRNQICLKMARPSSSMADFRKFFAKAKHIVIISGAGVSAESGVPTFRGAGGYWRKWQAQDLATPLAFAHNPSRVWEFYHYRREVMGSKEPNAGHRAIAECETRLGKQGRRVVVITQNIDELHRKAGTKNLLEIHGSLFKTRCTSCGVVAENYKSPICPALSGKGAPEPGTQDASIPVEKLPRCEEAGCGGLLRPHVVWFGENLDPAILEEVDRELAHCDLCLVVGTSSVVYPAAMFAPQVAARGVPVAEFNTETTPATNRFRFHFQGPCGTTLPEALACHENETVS
Chain of Glutathione-S-transferase (Q26513 whole entry): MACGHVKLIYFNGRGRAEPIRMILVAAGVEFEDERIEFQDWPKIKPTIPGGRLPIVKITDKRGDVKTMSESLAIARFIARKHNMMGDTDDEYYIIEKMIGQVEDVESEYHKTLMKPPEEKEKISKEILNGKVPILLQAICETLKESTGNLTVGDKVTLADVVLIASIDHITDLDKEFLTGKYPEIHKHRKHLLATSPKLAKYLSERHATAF
Chain of Large T antigen (P03070 whole entry): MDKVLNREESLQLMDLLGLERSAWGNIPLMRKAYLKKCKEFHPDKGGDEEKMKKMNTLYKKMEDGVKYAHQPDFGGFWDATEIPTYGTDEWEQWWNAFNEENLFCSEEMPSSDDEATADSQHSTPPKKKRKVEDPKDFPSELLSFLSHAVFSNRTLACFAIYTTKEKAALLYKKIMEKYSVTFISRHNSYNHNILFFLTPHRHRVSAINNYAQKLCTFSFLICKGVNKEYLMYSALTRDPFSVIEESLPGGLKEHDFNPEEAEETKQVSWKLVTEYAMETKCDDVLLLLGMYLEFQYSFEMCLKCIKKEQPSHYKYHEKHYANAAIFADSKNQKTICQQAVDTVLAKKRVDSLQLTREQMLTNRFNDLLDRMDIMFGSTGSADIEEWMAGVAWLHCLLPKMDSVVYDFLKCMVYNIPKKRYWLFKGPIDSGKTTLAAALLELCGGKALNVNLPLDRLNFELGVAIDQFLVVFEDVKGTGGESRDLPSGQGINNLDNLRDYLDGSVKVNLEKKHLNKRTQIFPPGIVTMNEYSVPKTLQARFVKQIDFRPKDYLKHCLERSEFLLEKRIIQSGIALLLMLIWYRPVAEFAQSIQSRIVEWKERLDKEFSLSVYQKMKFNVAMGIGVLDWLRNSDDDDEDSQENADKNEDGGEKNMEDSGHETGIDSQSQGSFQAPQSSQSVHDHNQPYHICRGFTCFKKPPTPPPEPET
Chain of Genome polyprotein (P29990 2492-3391 limits assumed): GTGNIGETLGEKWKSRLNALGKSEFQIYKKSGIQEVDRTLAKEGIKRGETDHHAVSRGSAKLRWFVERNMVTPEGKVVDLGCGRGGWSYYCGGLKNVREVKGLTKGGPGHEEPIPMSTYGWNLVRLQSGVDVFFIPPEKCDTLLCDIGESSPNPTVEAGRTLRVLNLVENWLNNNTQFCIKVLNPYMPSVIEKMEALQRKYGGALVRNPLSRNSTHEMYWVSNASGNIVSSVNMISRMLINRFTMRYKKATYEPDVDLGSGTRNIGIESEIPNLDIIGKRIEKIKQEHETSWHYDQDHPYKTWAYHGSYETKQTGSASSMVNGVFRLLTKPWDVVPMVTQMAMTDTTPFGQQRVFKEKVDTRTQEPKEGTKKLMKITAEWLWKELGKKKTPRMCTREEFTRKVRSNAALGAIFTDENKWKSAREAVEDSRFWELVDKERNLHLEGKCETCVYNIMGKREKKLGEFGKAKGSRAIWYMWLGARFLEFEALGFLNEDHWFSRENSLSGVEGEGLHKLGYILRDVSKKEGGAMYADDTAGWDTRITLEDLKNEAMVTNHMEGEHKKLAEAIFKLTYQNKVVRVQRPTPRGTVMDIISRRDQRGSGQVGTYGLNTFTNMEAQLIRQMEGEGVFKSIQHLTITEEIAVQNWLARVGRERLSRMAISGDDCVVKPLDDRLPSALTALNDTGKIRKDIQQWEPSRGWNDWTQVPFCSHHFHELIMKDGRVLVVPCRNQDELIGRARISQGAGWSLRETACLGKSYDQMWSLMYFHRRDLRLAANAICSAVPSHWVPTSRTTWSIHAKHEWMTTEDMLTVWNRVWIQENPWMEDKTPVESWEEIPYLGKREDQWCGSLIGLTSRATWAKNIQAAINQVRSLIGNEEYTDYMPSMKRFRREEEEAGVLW

Structure (SMILES): Nc1nn(S(=O)(=O)c2cccc3nsnc23)cc1-c1ccc(Br)cc1
- IC50 [1]: > 50 µM (not active)

Structure (SMILES): O=C1CC(c2ccco2)Cc2nc(Nc3nc(-c4ccccc4)c4ccccc4n3)ncc21 (stereo unspecified)
- IC50 [5]: > 20 µM (inactive)
- IC50 [6]: 10.9 µM (active)

Structure (SMILES): O=c1oc2c3c4c(cc2s1)CCCN4CCC3
- IC50 [7]: 10.4 µM (active)
- EC50 [8]: 24.1 µM (inconclusive)
- IC50 [9]: 48 µM (inactive)
- IC50 [10]: 66.2 µM (active)
- IC50 [11]: 17.9 µM (active)
- IC50 [12]: > 66 µM (inactive)
- EC50 [13]: 28.1 µM (active)
- IC50 [14]: 86.7 µM (active)
- IC50 [15]: > 50 µM (not active)

Structure (SMILES): O=C(Nc1nnc(C2CC2)o1)c1ccc(S(=O)(=O)N2CCCc3ccccc32)cc1
- EC50 [16]: 4 µM (active)
- CC50 [17]: 15.1 µM (active)
- EC50 [18]: 2.46 µM (active)
- EC50 [19]: 1.4 µM (active)
- EC50 [20]: 5.11 µM (active)

Now from value to compound:

- AC50 [2]: > 30 µM (inactive)
Structure (SMILES): O=C(Cc1nnc(NC(=O)Nc2ccc(Cl)cc2)s1)NCc1ccccc1

- EC50 [3]: 13.1 µM (inactive)
Structure (SMILES): COc1ccc(NC(=O)c2cc(-c3ccco3)on2)cc1OC

- IC50 [4]: > 50 µM (not active)
Structure (SMILES): CC(C)COC(=O)c1nnsc1NC(=O)Nc1ccccc1

- EC50 [21]: 13.6 µM (not active)
Structure (SMILES): COc1ccc(C(=O)NCCSC2CCCCC2)cc1
